Assay results taken from ChEMBL document CHEMBL1131836, “Potent, easily synthesized huperzine A-tacrine hybrid acetylcholinesterase inhibitors” (Bioorg Med Chem Lett, 1999).

Columns and labels:
[1] = target: T1, Acetylcholinesterase (Rattus norvegicus, UniProt P37136)
T1 sequence (P37136 whole entry): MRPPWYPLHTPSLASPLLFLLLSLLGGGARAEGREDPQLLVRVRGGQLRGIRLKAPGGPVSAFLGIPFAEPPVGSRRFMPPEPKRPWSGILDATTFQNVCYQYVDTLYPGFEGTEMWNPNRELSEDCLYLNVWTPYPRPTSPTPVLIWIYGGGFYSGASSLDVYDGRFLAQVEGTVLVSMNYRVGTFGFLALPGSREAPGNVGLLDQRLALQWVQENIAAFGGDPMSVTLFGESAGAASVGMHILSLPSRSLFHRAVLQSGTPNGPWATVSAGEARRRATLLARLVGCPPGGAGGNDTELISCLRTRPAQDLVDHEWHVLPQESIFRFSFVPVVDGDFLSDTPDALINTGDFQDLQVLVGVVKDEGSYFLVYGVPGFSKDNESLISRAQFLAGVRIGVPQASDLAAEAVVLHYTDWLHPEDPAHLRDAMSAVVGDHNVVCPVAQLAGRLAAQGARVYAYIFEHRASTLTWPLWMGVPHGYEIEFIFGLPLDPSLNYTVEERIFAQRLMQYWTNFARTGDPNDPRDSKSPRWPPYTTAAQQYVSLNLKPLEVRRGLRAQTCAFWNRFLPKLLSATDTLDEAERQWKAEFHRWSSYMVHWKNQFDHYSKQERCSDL
Description: Inhibitory potency against acetylcholinesterase (AChE) of rat cortex homogenate with ethopropazine as BChE inhibitor

[2] = target: Butyrylcholinesterase (Rattus norvegicus, UniProt Q9JKC1)
Chain of Butyrylcholinesterase (Q9JKC1 whole entry): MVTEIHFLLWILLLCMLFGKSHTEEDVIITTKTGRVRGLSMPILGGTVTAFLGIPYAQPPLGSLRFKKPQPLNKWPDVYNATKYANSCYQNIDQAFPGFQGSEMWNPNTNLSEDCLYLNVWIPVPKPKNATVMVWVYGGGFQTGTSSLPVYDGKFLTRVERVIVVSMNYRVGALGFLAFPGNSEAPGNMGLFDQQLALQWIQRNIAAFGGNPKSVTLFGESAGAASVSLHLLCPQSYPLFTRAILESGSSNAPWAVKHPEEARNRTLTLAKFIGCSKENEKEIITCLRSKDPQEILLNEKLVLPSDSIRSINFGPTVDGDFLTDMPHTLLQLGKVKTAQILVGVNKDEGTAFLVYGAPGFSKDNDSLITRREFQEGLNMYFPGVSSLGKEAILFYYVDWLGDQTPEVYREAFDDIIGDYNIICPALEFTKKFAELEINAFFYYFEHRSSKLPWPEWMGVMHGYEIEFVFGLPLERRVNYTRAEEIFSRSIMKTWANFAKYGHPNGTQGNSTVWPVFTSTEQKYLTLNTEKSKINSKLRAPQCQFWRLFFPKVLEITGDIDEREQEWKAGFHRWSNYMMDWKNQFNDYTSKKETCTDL
Description: Inhibitory potency against rat serum Butyrylcholinesterase with BW284c51 as AChE inhibitor

| Compound | IC50 [1] [nM] | IC50 [2] [nM] |
| --- | --- | --- |
| Oc1ccc2c(n1)CCCC2NCCCCNc1c2c(nc3ccccc13)CCCC2 (racemic) | 42.6 | 228 |
| Oc1ccc2c(n1)CCCC2NCCCCCCCNc1c2c(nc3ccccc13)CCCC2 (racemic) | 53.1 | 233 |
| O=c1ccc2c([nH]1)CCCC2NCCCCCCCCCCCCNc1c2c(nc3ccccc13)CCCC2 (racemic) | 112 | 434 |
| O=c1ccc2c([nH]1)CCCC2NCCCCCCCCNc1c2c(nc3ccccc13)CCCC2 (racemic) | 26.2 | 166 |
| Oc1ccc2c(n1)CCCC2NCCCCCCNc1c2c(nc3ccccc13)CCCC2 (racemic) | 37.1 | 223 |
| Oc1ccc2c(n1)CCCC2NCCCCCNc1c2c(nc3ccccc13)CCCC2 (racemic) | 122 | 220 |
| Oc1ccc2c(n1)CCCC2NCCCCCCCCCNc1c2c(nc3ccccc13)CCCC2 (racemic) | 36.3 | 150 |
| O=c1ccc2c([nH]1)CCCC2NCCCCCCCCCCNc1c2c(nc3ccccc13)CCCC2 (racemic) |  | 81.5 |
